Test results reported in US20230165835A1, “METHODS OF TREATING ACUTE LUNG INJURY USING EBSELEN” (SOUND PHARMACEUTICALS INC., priority 2020, published 2023).
“Also recorded” adds a separate entry of the source. Where two headings read alike, the source gives them in different places.

What was measured:
SARS-CoV-2 [1] = experiment: Reduction of SARS-CoV-2 viral load in Vero E6 cells (image based assay of Jin et al.); format: cell-based
Vero E6 cells = experiment: Cytotoxicity / cell viability in Vero E6 cells; format: cell-based
SARS-CoV-2 [2] = experiment: Hamster model of SARS-CoV-2 disease transmission and progression, viral load (PFU); format: in vivo, Golden Syrian Hamsters
Protocol: 24 hours prior to nasal inoculation with SARS-CoV-2, Golden Syrian Hamsters were dosed with ebselen, saline and remdesivir at 15 mg/kg. Samples were taken from nares (PFU/swab) on days 1, 2 and 3, and from the nasal turbinates and cranial & caudal lung tissue (PFU/100 mg) on day 7.

[3] = Cystic fibrosis trial: clinical chemistry, nephrotoxicity, tolerability; format: in vivo, human; settings: for Serum Creatinine Mean (SD): baseline 0.77 (0.24); for Blood Urea Nitrogen Mean (SD): baseline 12.81 (4.73); for Bilirubin (Total) / Creatinine / Magnesium / Phosphorus / Albumin / Potassium / Uric Acid / Total Protein / Calcium / BUN / AST/SGOT / ALT/SGPT / GGT / Bicarbonate / Triglyceride / Alkaline Phosphatase / Glucose / Chloride / Total Cholesterol / Sodium / LDH: ITT Population; for Bilirubin (Total): Screening/Baseline 0.46; for Creatinine: Screening/Baseline 0.77; for Magnesium: Screening/Baseline 2.11; for Phosphorus: Screening/Baseline 3.62; for Albumin: Screening/Baseline 3.80; for Potassium: Screening/Baseline 4.33; for Uric Acid: Screening/Baseline 5.63; for Total Protein: Screening/Baseline 7.17; for Calcium: Screening/Baseline 8.84; for BUN: Screening/Baseline 12.81; for AST/SGOT: Screening/Baseline 16.86; for ALT/SGPT: Screening/Baseline 17.05; for GGT: Screening/Baseline 22; for Bicarbonate: Screening/Baseline 26.05; for Triglyceride: Screening/Baseline 78.33; for Alkaline Phosphatase: Screening/Baseline 97.71; for Glucose: Screening/Baseline 101.24; for Chloride: Screening/Baseline 101.95; for Total Cholesterol: Screening/Baseline 126.43; for Sodium: Screening/Baseline 135.71; for LDH: Screening/Baseline 161.48
Protocol: Thirty of 80 participants were enrolled starting in January 2019. They were Cystic fibrosis patients ages 18-70 that had acute pulmonary exacerbation or acute respiratory infections that required treatment with IV tobramycin 10 mg/kg/d for 10-21 days. They were randomized into four groups (1:1:1:1) (0, 200, 400, or 600 BID) and treated for 21 days. There were four follow-up visits for safety (adverse events, spirometry, labs), and two follow-up visits for efficacy (audiometric and vestibular). The primary endpoint was a reduction in cochleotoxic change, and the secondary endpoints was a reduction in tinnitus or vertigo severity.

[4] = Cystic fibrosis trial: sentinel Pk, plasma tobramycin levels (DDI); format: in vivo, human
[5] = Study 6.3: ebselen in mild to moderate COVID-19; format: in vivo, human; settings: 400 to 600 mg BID for 14 to 21 days
[6] = Study 6.5: ebselen in moderate to severe COVID-19 at high risk of respiratory failure; format: in vivo, human; settings: 400 to 600 mg BID up to 21 to 28 days
[7] = Study 6.6: ebselen in severe COVID-19; format: in vivo, human; settings: 400 or 800 mg BID for 14 days
[8] = molecular target: COVID-19 virus main protease (M^pro) (Severe acute respiratory syndrome coronavirus 2, UniProt P0DTD1); settings: Jin et al.; cited from earlier work
[9] = mice; Gu et al.; cited from earlier work
[10] = mice; Longenecker et al.; cited from earlier work
[11] = Visit 3, end of tobramycin treatment
[12] = Visit 4, two weeks after end of tobramycin treatment
[13] = Visit 5, four weeks after end of tobramycin treatment

O=c1c2ccccc2[se]n1-c1ccccc1 [ebselen, 2-phenyl-1,2-benzisoselenazol-3(2H)-one]
EC50 (SARS-CoV-2 [1]; SARS-CoV-2, ebselen 100 nM to 1000 μM in DMSO or EtOH, remdesivir 1 nM to 10 μM, listed as ebselen (EtOH), read-out: EC50, reduction in viral load in Vero E6 cells): 10.9 µM
EC50 (SARS-CoV-2 [1]; Severe acute respiratory syndrome coronavirus 2, Vero C1008, SARS-CoV-2, ebselen 100 nM to 1000 μM in DMSO or EtOH, remdesivir 1 nM to 10 μM, read-out: EC50, reduction in viral load in Vero E6 cells): 21.3 µM
EC50 (SARS-CoV-2 [1]; Severe acute respiratory syndrome coronavirus 2, Vero C1008, Vero E6 cells, ebselen added in DMSO, read-out: EC50, inhibition of viral load): 21 µM
EC50 (SARS-CoV-2 [1]; Severe acute respiratory syndrome coronavirus 2, Vero C1008, Vero E6 cells, ebselen added in EtOH, read-out: EC50, inhibition of viral load): 11 µM
inhibition of viral load (FIGS. 1A-C) (SARS-CoV-2 [1]; in vitro kidney cell assay (Vero E6 cells)): inhibited viral load
cell viability at the EC50 (Vero E6 cells): 100%
effect on cell viability (Vero E6 cells; ebselen: at ranges slightly higher than EC50): cell viability was decreased
CC50 (Vero E6 cells; listed as ebselen (DMSO)): > 1000 µM
CC50 (Vero E6 cells; listed as ebselen (EtOH)): > 100 µM
PFU/swab (nares) Day 1 (SARS-CoV-2 [2]; 15 mg/kg, 24 hours prior to nasal inoculation, saline 2.7E+04): 1.0E+04 PFU/swab
PFU/swab (nares) Day 3 (SARS-CoV-2 [2]; 15 mg/kg, 24 hours prior to nasal inoculation, saline 5.5E+02): 1.7E+02 PFU/swab
PFU/swab (nares) Day 2 (SARS-CoV-2 [2]; 15 mg/kg, 24 hours prior to nasal inoculation, saline 7.5E+03): 6.2E+03 PFU/swab
PFU/100 mg Cranial lung (SARS-CoV-2 [2]; 15 mg/kg, day 7, saline 4.9E+06): 2.3E+06 PFU/100 mg
PFU/100 mg Turbinates (SARS-CoV-2 [2]; 15 mg/kg, day 7, saline 5.5E+07): 3.6E+07 PFU/100 mg
PFU/100 mg Caudal lung (SARS-CoV-2 [2]; 15 mg/kg, day 7, saline 6.1E+06): 6.0E+06 PFU/100 mg
samples with lower counts compared to remdesivir (SARS-CoV-2 [2]; Table 2, six samples): 5 of 6
samples with lower counts compared to saline (SARS-CoV-2 [2]; Table 2, six samples): 6 of the 6
Serum Creatinine Mean (SD) ([3]; Visit 2, on tobramycin and study treatment, normal 0.49-1.44): 0.80 (0.22) mg/dl
Blood Urea Nitrogen Mean (SD) ([3]; Visit 2, on tobramycin and study treatment, normal 5-22): 14.68 (4.80) mg/dl
Bilirubin (Total) ([3]; Visit 2): 0.41
Creatinine ([3]; Visit 2): 0.80
Magnesium ([3]; Visit 2): 2.21
Phosphorus ([3]; Visit 2): 3.61
Albumin ([3]; Visit 2): 3.87
Potassium ([3]; Visit 2): 4.22
Uric Acid ([3]; Visit 2): 4.89
Total Protein ([3]; Visit 2): 7.17
Calcium ([3]; Visit 2): 8.86
BUN ([3]; Visit 2): 14.68
AST/SGOT ([3]; Visit 2): 26.45
ALT/SGPT ([3]; Visit 2): 31.41
GGT ([3]; Visit 2): 25
Bicarbonate ([3]; Visit 2): 26.73
Triglyceride ([3]; Visit 2): 114.82
Alkaline Phosphatase ([3]; Visit 2): 93.41
Glucose ([3]; Visit 2): 120.95
Chloride ([3]; Visit 2): 100.68
Total Cholesterol ([3]; Visit 2): 139.68
Sodium ([3]; Visit 2): 136.36
LDH ([3]; Visit 2): 165.45
Serum Creatinine Mean (SD) [3, 11]: 0.78 (0.20) mg/dl
Blood Urea Nitrogen Mean (SD) [3, 11]: 15.11 (5.56) mg/dl
Bilirubin (Total) ([3]; Visit 3): 0.45
Creatinine ([3]; Visit 3): 0.78
Magnesium ([3]; Visit 3): 2.19
Phosphorus ([3]; Visit 3): 3.68
Albumin ([3]; Visit 3): 4.05
Potassium ([3]; Visit 3): 4.25
Uric Acid ([3]; Visit 3): 5
Total Protein ([3]; Visit 3): 7.29
Calcium ([3]; Visit 3): 9.03
BUN ([3]; Visit 3): 15.11
AST/SGOT ([3]; Visit 3): 27.58
ALT/SGPT ([3]; Visit 3): 35.63
GGT ([3]; Visit 3): 28.32
Bicarbonate ([3]; Visit 3): 27.42
Triglyceride ([3]; Visit 3): 114.84
Alkaline Phosphatase ([3]; Visit 3): 90.16
Glucose ([3]; Visit 3): 102.53
Chloride ([3]; Visit 3): 100.68
Total Cholesterol ([3]; Visit 3): 151.89
Sodium ([3]; Visit 3): 136.05
LDH ([3]; Visit 3): 166.37
Serum Creatinine Mean (SD) [3, 12]: 0.78 (0.19) mg/dl
Blood Urea Nitrogen Mean (SD) [3, 12]: 14.94 (6.66) mg/dl
Bilirubin (Total) ([3]; Visit 4): 0.49
Creatinine ([3]; Visit 4): 0.78
Magnesium ([3]; Visit 4): 2.06
Phosphorus ([3]; Visit 4): 3.84
Albumin ([3]; Visit 4): 4.08
Potassium ([3]; Visit 4): 4.16
Uric Acid ([3]; Visit 4): 5.63
Total Protein ([3]; Visit 4): 7.49
Calcium ([3]; Visit 4): 9.12
BUN ([3]; Visit 4): 14.94
AST/SGOT ([3]; Visit 4): 18.22
ALT/SGPT ([3]; Visit 4): 20.44
GGT ([3]; Visit 4): 23.11
Bicarbonate ([3]; Visit 4): 25.94
Triglyceride ([3]; Visit 4): 96.06
Alkaline Phosphatase ([3]; Visit 4): 104.50
Glucose ([3]; Visit 4): 132.56
Chloride ([3]; Visit 4): 100.94
Total Cholesterol ([3]; Visit 4): 134.78
Sodium ([3]; Visit 4): 135.17
LDH ([3]; Visit 4): 158.83
Serum Creatinine Mean (SD) [3, 13]: 0.81 (0.24) mg/dl
Blood Urea Nitrogen Mean (SD) [3, 13]: 13.45 (6.49) mg/dl
Bilirubin (Total) ([3]; Visit 5): 0.46
Creatinine ([3]; Visit 5): 0.81
Magnesium ([3]; Visit 5): 2.16
Phosphorus ([3]; Visit 5): 3.72
Albumin ([3]; Visit 5): 3.98
Potassium ([3]; Visit 5): 4.25
Uric Acid ([3]; Visit 5): 5.62
Total Protein ([3]; Visit 5): 7.38
Calcium ([3]; Visit 5): 9.11
BUN ([3]; Visit 5): 13.45
AST/SGOT ([3]; Visit 5): 26.60
ALT/SGPT ([3]; Visit 5): 22.45
GGT ([3]; Visit 5): 20.65
Bicarbonate ([3]; Visit 5): 26.15
Triglyceride ([3]; Visit 5): 89.95
Alkaline Phosphatase ([3]; Visit 5): 101.70
Glucose ([3]; Visit 5): 119.05
Chloride ([3]; Visit 5): 101.80
Total Cholesterol ([3]; Visit 5): 137.60
Sodium ([3]; Visit 5): 136.45
LDH ([3]; Visit 5): 213.58
nephrotoxicity ([3]; after IV tobramycin and SPI-1005 or placebo treatment): no significant nephrotoxicity; also recorded: lack of nephrotoxicity
tolerability ([3]; human, in vivo, iv): well tolerated
change in plasma tobramycin levels (DDI) [4]: no significant change in plasma tobramycin levels
respiratory status and progression to severe disease [5]: effective to improve in respiratory status and prevent progression to severe disease
time to clinical improvement (NIAID ordinal scale) [6]: effective to reduce time to at least a 2-grade improvement from baseline on the NIAID ordinal scale
respiratory status / time to clinical improvement (WHO ordinal scale) [7]: effective to improve in respiratory status, and/or reduce time to at least a 2-grade improvement from baseline on the WHO ordinal scale
in vitro inhibition activity against M^pro protease [8]: modest in vitro inhibition activity
protection against tobramycin-induced ototoxicity, auditory brainstem responses [9]: otoprotective and neuroprotective properties
tinnitus and hyperacusis following amikacin-induced ototoxicity [10]: improvements in tinnitus and hyperacusis
